Laboratory results taken from patent US7632662B2, “Compounds, compositions and methods for producing antioxidants from carnitine” (priority 2002, dated 2009).
Read-outs that look alike come from different tables or passages of the source.

Legend:
[1] = target: T1, Aβ(1-40) peptide (Homo sapiens, UniProt P05067); test: Acetylation of Aβ(1-40) peptide by ALCAR; type: biochemical
T1 construct: the Aβ(1-40) peptide derived from the ubiquitous protein, amyloid precursor protein

[2] = tested on: brain PME levels; test: In vivo 31P MRSI in two young subjects with MDD; set-up: species or system human; conditions: 2 young MDD subjects; treatment with ALCAR
From the text: As part of an ongoing ^31P-^1H MRSI study of never-medicated, first-episode schizophrenia subjects three ^31P MRSI spectra on 2 MDD subjects (1 person, 1 person, 24∀2.3 years) were obtained. The MDD spectral results are compared with those obtained from 13 controls (6 males; 3 white, 2 African-American, 1 Asian and 7 females; 4 white, 3 African-American; 21∀1.0 years). PME levels in the MDD subjects were increased by approximately 15% (p=0.13) while there were decreases in the levels of PDE (approx. −7%; p=0.08), PCr (approx. −5%, p=0.61), and β-ATP (approx. −3%, p=0.87) (FIG. 6). Treatment with ALCAR lowered PME levels in the MDD subjects.

[3] = tested on: rat brain; test: Effect of ALCAR on in vitro 31P MRS brain metabolite and phospholipid levels under normoxia and brief hypoxia; type: in vivo, Fischer 344 rats; conditions: for PCr levels: non-significant; for Phosphatidylserine (PtdS) levels, change: p<0.01
Protocol: FIG. 4 is a block diagram illustrating an effect of ALCAR on in vitro ^31P MRS α-GP and PCr levels under hypoxic (30 seconds) and normoxic conditions in Fischer 344 rats.
FIG. 5 is a block diagram illustrating an effect of ALCAR on in vitro ^31P MRS phospholipid levels under hypoxic and normoxic conditions in Fischer 344 rats.
The rat brain responds differentially to brief energetic stress (30 seconds of hypoxia) depending on the age of the animal. The effect of ALCAR (75 mg/kg animal weight injected intraperitoneally 1 hour before sacrificing the animal) on both normoxic rat brain and rat brain exposed to brief hypoxia (30 seconds) was investigated (FIGS. x and x). These studies were conducted on aged rats (30 months) to provide possible insights into human aged brain and MDD.

[4] = tested on: geriatric depressed subjects; conditions: cited from earlier work; for day 60 HDRS: 3.0 gm/day
[5] = tested on: non-demented geriatric major depressive disorder (NDG-MDD) subjects; test: Twelve-week open clinical study of ALCAR in geriatric major depressive disorder: HDRS, CIRS, side effects; type: in vivo, human; conditions: for HDRS score: oral
From the text: (§1) A twelve-week, open, clinical, ^31P MRSI study design was used to examine the possible effects of ALCAR on brain metabolism and depressive symptomatology in non-demented geriatric major depressive disorder (NDG-MDD). Two depressed, non-demented [Folstein Mini-Mental State Exam (MMSE)>24)] male subjects, were compared with six age, social-economic status, and medically matched non-demented controls (all male, mean age of 73.6±3.6 years, range 69.7-78.2 years). The two elderly depressed subjects completed baseline Structural Clinical Interview of DSM-IV (SCID) I/P version 2.0, HDRS (17 item), MMSE, UKU Side Effect Rating Scale (UKU), and Cumulative Illness Rating Scale (CIRS) to assess medical burden, baseline physical, ECG, and, laboratory tests for hematology, urine analysis, immunopathology, and blood chemistry. Follow-up visits for the depressed subjects were done every other week for 12 weeks. Efficacy (psychiatric evaluation) was assessed by changes in the HDRS which was performed at baseline and every other week for 12 weeks along with secondary measures (MMSE; CIRS; and UKU), whereas the CIRS was performed at baseline, 6, and 12 weeks. Physical examinations and EKGs were performed at baseline, 6, and 12 weeks. The baseline MR evaluation was scheduled and completed prior to the administration of ALCAR. Follow-up MR evaluations were at 6 and 12 weeks. Acetyl-L-carnitine was administered in the form of oral tablets containing 590 mg of acetyl-L-carnitine hydrochloride (500 mg acetyl-L-carnitine). The dosage regimen was fixed at three grams of acetyl-L-carnitine given two tablets three times a day for 12 weeks.
The statistical analysis was done using the Statview (SAS Institute, Inc.) software package. The pearson t correlation test used to correlate between variables.

[6] = tested on: brain PME(s-τc) and PCr levels; test: 31P MRSI of brain metabolite levels in two depressed elderly subjects treated with ALCAR for 12 weeks; type: in vivo, human; conditions: for increase of prefrontal PCr levels with ALCAR treatment: prefrontal region
From the text: Phosphorus magnetic resonance spectroscopic imaging (^31P MRSI) analysis of two depressed elderly subjects treated with ALCAR for 12 weeks are compared with those of six normal non-demented, non-depressed subjects.
as §1
^31P MRSI acquisition—A custom built, doubly tuned transmit/receive volume head coil was used to acquire the ^1H MRI and 2D ^31P MRSI data on a GE Signa 1.5 T whole body MR imager. First, sets of axial and sagittal scout MR images were collected. […] A self-refocused spin echo pulse sequence with an effective flip range of 60° and an echo time of 2.5 ms, was used to acquire the ^31P MRSI (360 mm field of view, 30 mm slice thickness, 8×8 phase encoding steps [45×45×30 mm^3 nominal voxel dimensions], 2 s TR, 1024 data points, 4.0 kHz spectral bandwidth and 16 NEX).
MRSI post-processing and quantification—To optimize the right and left voxel positions for the six regions, the 8×8 ^31P grid was shifted with respect to the anatomical MRI and a mild spatial apodization (i.e., Fermi window with 90% diameter and 5% transition width) was applied prior to the inverse Fourier transform. The remaining processing steps were 100% automated. A 5 Hz exponential apodization was applied and the PME, phosphodiester (PDE), PCr, α-, γ-, and β-ATP, and inorganic orthophosphate (Pi), were modeled in the time domain with exponentially damped sinusoids and by omitting the first 2.75 ms of the free induction decay (FID) using the Marquardt-Levenberg algorithm. This approach ensured that the PME and PDE resonances primarily reflected the freely mobile, short correlation time (s-τc), water soluble PME(s-τc) and PDE(s-τc) metabolites without the influence of relatively broad underlying signals within the PME and PDE spectral region. […]

[7] = tested on: canine model of complete, global cerebral ischemia and reperfusion; conditions: versus vehicle-treated control animals; p=0.0037; Rosenthal et al. 1992; cited from earlier work

T1 sequence (P05067 672-711 limits assumed): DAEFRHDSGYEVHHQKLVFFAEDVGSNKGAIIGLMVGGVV

CC(=O)O[C@H](CC(=O)[O-])C[N+](C)(C)C [ALCAR, acetyl-L-carnitine]
acetylation of the Aβ(1-40) peptide [1]: can acetylate lysine 28 | PME levels in the MDD subjects [2]: lowered | Cardiolipin levels ([3]; ALCAR/hypoxia): non-significantly reduced | α-GP levels, change compared with controls ([3]; ALCAR/hypoxia (30 seconds), aged rats (30 months), 75 mg/kg i.p., p=0.01): approximately +80% | PCr levels ([3]; ALCAR/hypoxia, p=0.07): decrease | Phosphatidylserine (PtdS) levels, change ([3]; ALCAR/hypoxic): approx. −75% | Cardiolipin levels ([3]; ALCAR/normoxia): unchanged | α-GP levels ([3]; ALCAR/normoxia, aged rats (30 months), 75 mg/kg intraperitoneally 1 hour before sacrifice): did not alter | PCr levels ([3]; ALCAR/normoxia): increase | Phosphatidylserine (PtdS) levels, change ([3]; ALCAR/normoxia): approx. −50% | day 60 HDRS ([4]; Bella et al. 1990, baseline HDRS 22, placebo day 60 = 20): 11 | day 60 HDRS ([4]; Fulgente et al. 1990, baseline HDRS 25, placebo day 60 = 22): 12 | HDRS ([4]; Garzya et al. 1990, 1.5 gm/day, ages 70-80 years): significant beneficial effects | mean cortisol levels and 12 am and 4 pm cortisol levels ([4]; Gecele et al. 1991, 2 gm/day, p<0.001, p<0.001, p<0.01): significant reduction | HDRS ([4]; Gecele et al. 1991, 2 gm/day, p<0.001): significant improvement | HDRS scores ([4]; Nasca et al. 1989, day 40 of treatment, baseline HDRS 44.9, p<0.001): significant improvement | side effects ([4]; Tempesta et al. 1987, 2 gm/day): no reported ALCAR side effects | HDRS scores ([4]; Tempesta et al. 1987, open label cross over, 2 gm/day, subjects over 70 years): highly effective | side effects ([4]; Villardita et al. 1983, 1.5 gm/day, 40 days): no side effects | Hamilton Depressive Rating Scale (HDRS) ([4]; Villardita et al. 1983, 1.5 gm/day, day 40, baseline HDRS 26.3, p<0.001): significant improvement | tolerability ([4]; randomized double-blind studies, even at the higher dosages (up to 3.0 gm/day)): well tolerated | Side effects from ALCAR treatment ([5]; both depressed subjects, 12 weeks, three grams per day): mild | laboratory exams and EKG ([5]; either depressed subject): No clinically significant abnormalities | Side effects from ALCAR treatment ([5]; subject #1): dry mouth | CIRS ([5]; subject #1, 6 weeks, baseline 7): 6 | HDRS score ([5]; subject #1, 6 weeks, baseline 15, three grams acetyl-L-carnitine per day): 1 | CIRS ([5]; subject #1, 12 weeks, baseline 7): 5 | HDRS score ([5]; subject #1, 12 weeks, baseline 15, three grams per day): 0 | Side effects from ALCAR treatment ([5]; subject #2): slight increase in perspiration | CIRS ([5]; subject #2, 6 weeks, baseline 4): 4 | HDRS score ([5]; subject #2, 6 weeks, baseline 20, three grams per day): 17 | CIRS ([5]; subject #2, 12 weeks, baseline 4): 2 | HDRS score ([5]; subject #2, 12 weeks, baseline 20, three grams per day): 3 | PME(s-τc) levels in the superior temporal regions ([6]; after 12 weeks of ALCAR treatment, compared with normal subjects, p=0.05): elevated | PCr levels in the prefrontal, basal ganglia and occipital regions ([6]; after 12 weeks of ALCAR treatment, compared with normal subjects, p=0.001, 0.022, 0.027): elevated | prefrontal PME(s-τc) levels ([6]; baseline 1.5 to 2.0 SD higher than mean of controls, with ALCAR treatment): normalized | increase of prefrontal PCr levels with ALCAR treatment ([6]; first of the two depressed subjects (respectively)): 27% | increase of prefrontal PCr levels with ALCAR treatment ([6]; second of the two depressed subjects (respectively)): 31% | neurological deficit scores [7]: significantly lower
